Laboratory results published in ChEMBL document CHEMBL1201862, “PubChem BioAssay data set” (2004).
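Assay format: 96-well plates, 48-hour exposure. GI50 = concentration required for 50% inhibition of growth.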 Calls of active or inactive are those of the source. Cut-off read from the data, not from the text of the source: active = GI50 up to about 1.1 µM and inactive = higher.

Experiments:
Test in all cases: growth of human tumour cells (NCI), 48 h
A498 = tested on: A498
ACHN = tested on: ACHN
CCRF-CEM = tested on: CCRF-CEM
COLO 205 = tested on: COLO 205
DU-145 = tested on: DU-145
HL-60 = tested on: HL-60
HOP-62 = tested on: HOP-62
LOX IMVI = tested on: LOX IMVI
MDA-MB-231 = tested on: MDA-MB-231
MDA-MB-435 = tested on: MDA-MB-435
NCI-H23 = tested on: NCI-H23
NCI-H522 = tested on: NCI-H522
NCI/ADR-RES = tested on: NCI/ADR-RES
PC-3 = tested on: PC-3
RXF 393 = tested on: RXF 393
SF-268 = tested on: SF-268
SF-539 = tested on: SF-539
SNB-75 = tested on: SNB-75
SR = tested on: SR
U-251 = tested on: U-251

| Structure (SMILES) | GI50 (A498) | GI50 (ACHN) | GI50 (CCRF-CEM) | GI50 (COLO 205) | GI50 (DU-145) | GI50 (HL-60) | GI50 (HOP-62) | GI50 (LOX IMVI) | GI50 (MDA-MB-231) | GI50 (MDA-MB-435) | GI50 (NCI-H23) | GI50 (NCI-H522) | GI50 (NCI/ADR-RES) | GI50 (PC-3) | GI50 (RXF 393) | GI50 (SF-268) | GI50 (SF-539) | GI50 (SNB-75) | GI50 (SR) | GI50 (U-251) |
| --- | --- | --- | --- | --- | --- | --- | --- | --- | --- | --- | --- | --- | --- | --- | --- | --- | --- | --- | --- | --- |
| Cn1c(=O)c2nc(SCc3ccccn3)[nH]c2n(C)c1=S | 23.3 µM (inactive) | > 100 µM (inactive) | > 100 µM (inactive) | > 100 µM (inactive) | > 100 µM (inactive) | > 100 µM (inactive) | 44 µM (inactive) | > 100 µM (inactive) | 76.6 µM (inactive) | > 100 µM (inactive) | > 100 µM (inactive) | > 100 µM (inactive) | 90.4 µM (inactive) | > 100 µM (inactive) | 32.1 µM (inactive) | > 100 µM (inactive) | 34.1 µM (inactive) | 19.5 µM (inactive) | > 100 µM (inactive) | 46.7 µM (inactive) |
| Cc1cc(C)nc(NS(=O)(=O)c2ccc(NC(=O)c3cccc4c(NNc5ccc(S(=O)(=O)N=C(N)N)cc5)c5ccccc5nc34)cc2)n1 | > 50 µM (inactive) | > 50 µM (inactive) | > 50 µM (inactive) | > 50 µM (inactive) | > 50 µM (inactive) | > 50 µM (inactive) | > 50 µM (inactive) | > 50 µM (inactive) | > 50 µM (inactive) | > 50 µM (inactive) | > 50 µM (inactive) | > 50 µM (inactive) | > 50 µM (inactive) | > 50 µM (inactive) | > 50 µM (inactive) | > 50 µM (inactive) | > 50 µM (inactive) | 41.9 µM (inactive) | > 50 µM (inactive) | > 50 µM (inactive) |
| c1ccc(C2=NOC(c3ccccc3)N2C23CC4CC(CC(C4)C2)C3)cc1 (stereo not drawn) | > 10 µM (inactive) | > 10 µM (inactive) | > 10 µM (inactive) | > 10 µM (inactive) | > 10 µM (inactive) | > 10 µM (inactive) | > 10 µM (inactive) | > 10 µM (inactive) | > 10 µM (inactive) | > 10 µM (inactive) | > 10 µM (inactive) | > 10 µM (inactive) | > 10 µM (inactive) | > 10 µM (inactive) | > 10 µM (inactive) | > 10 µM (inactive) | > 10 µM (inactive) | 5.19 µM (inactive) | 0.785 µM (active) | > 10 µM (inactive) |
| CCCCCC(O)(CCCCC)CCCCCCCCC1=C(O)C(=O)c2ccccc2C1=O | 13.3 µM (inactive) | 8.85 µM (inactive) | 6.12 µM (inactive) | 20.7 µM (inactive) | 8.53 µM (inactive) | 3.51 µM (inactive) | 11.6 µM (inactive) | 4.97 µM (inactive) | 11.4 µM (inactive) | 8.53 µM (inactive) | 8.15 µM (inactive) | 12.2 µM (inactive) | 4.4 µM (inactive) | 7.5 µM (inactive) | 12.9 µM (inactive) | 6.95 µM (inactive) | 11.2 µM (inactive) | 28.1 µM (inactive) | 3.44 µM (inactive) | 7.73 µM (inactive) |
| CC(=O)CC(C)(C)NC(=O)[C@@]1(O)CC[C@H]2[C@@H]3CCC4=CC(=O)CC[C@@H]4[C@H]3CC[C@@]21C | > 100 µM (inactive) | > 100 µM (inactive) | > 100 µM (inactive) | > 100 µM (inactive) | > 100 µM (inactive) | 70.3 µM (inactive) | > 100 µM (inactive) | > 100 µM (inactive) | > 100 µM (inactive) | > 100 µM (inactive) | > 100 µM (inactive) | > 100 µM (inactive) | > 100 µM (inactive) | > 100 µM (inactive) | > 100 µM (inactive) | > 100 µM (inactive) | > 100 µM (inactive) | > 100 µM (inactive) | > 100 µM (inactive) | > 100 µM (inactive) |
| Cc1ccnc2[nH]c(-c3ccccc3)cc(=O)c12 | > 10 µM (inactive) | 0.0458 µM (active) | 0.00589 µM (active) | 0.0039 µM (active) | 0.0313 µM (active) | 0.00188 µM (active) |  | 0.0149 µM (active) | 0.0912 µM (active) | 0.1 µM (active) | 0.0297 µM (active) | 0.00838 µM (active) | 0.00451 µM (active) | 0.00548 µM (active) | 0.0192 µM (active) | 0.0341 µM (active) | 0.0191 µM (active) | 0.00621 µM (active) | 0.00103 µM (active) | 0.00552 µM (active) |
| Cc1cn2c(/C=C3/C(=O)Nc4ccccc43)c(C)nc2s1 | 1.33 µM (inactive) | 6.07 µM (inactive) | 1.03 µM (active) | 0.433 µM (active) | 3.89 µM (inactive) | 0.321 µM (active) | 3.79 µM (inactive) | 3.46 µM (inactive) | 1.48 µM (inactive) | 0.138 µM (active) | 4.19 µM (inactive) | 1.32 µM (inactive) | 2.39 µM (inactive) | 1.3 µM (inactive) | 2.6 µM (inactive) | 3.98 µM (inactive) | 1.33 µM (inactive) | 3.79 µM (inactive) | 0.507 µM (active) | 2.24 µM (inactive) |
| CC(C)NCC(O)c1cc(OCc2ccccc2)c(OCc2ccccc2)cc1NC(=O)CCC(=O)O (stereo not drawn) | 11 µM (inactive) | 3.18 µM (inactive) | 2.58 µM (inactive) | 2.06 µM (inactive) | 13 µM (inactive) | 3.15 µM (inactive) | 13.7 µM (inactive) | 1.57 µM (inactive) | 8.15 µM (inactive) | 5.05 µM (inactive) | 13.2 µM (inactive) | 3.52 µM (inactive) | 12.9 µM (inactive) | 9.02 µM (inactive) | 5.36 µM (inactive) | 10.1 µM (inactive) | 16.4 µM (inactive) | 10.6 µM (inactive) | 2.34 µM (inactive) | 5.04 µM (inactive) |
| CC(=O)N(CCc1ccccc1)C(C#N)c1ccccc1 (stereo not drawn) | 91.2 µM (inactive) | > 100 µM (inactive) | > 100 µM (inactive) | > 100 µM (inactive) | > 100 µM (inactive) | > 100 µM (inactive) | > 100 µM (inactive) | > 100 µM (inactive) | > 100 µM (inactive) | > 100 µM (inactive) | > 100 µM (inactive) | > 100 µM (inactive) | > 100 µM (inactive) | > 100 µM (inactive) | > 100 µM (inactive) | > 100 µM (inactive) | > 100 µM (inactive) | 10.5 µM (inactive) | > 100 µM (inactive) | > 100 µM (inactive) |
| CCOC(=O)C(Cc1ccc2c(c1)CCC2)(Cc1ccc2c(c1)CCC2)C(=O)OCC | > 100 µM (inactive) | > 100 µM (inactive) | 32.2 µM (inactive) |  | > 100 µM (inactive) | 31.5 µM (inactive) | > 100 µM (inactive) | 71.1 µM (inactive) | 47.1 µM (inactive) | 44.6 µM (inactive) | 98.4 µM (inactive) | 29.9 µM (inactive) | > 100 µM (inactive) | 32.5 µM (inactive) | 23.4 µM (inactive) | 56.9 µM (inactive) | 81.7 µM (inactive) | > 100 µM (inactive) | 19 µM (inactive) | > 100 µM (inactive) |
| Cc1nc(C)c(N2CCNCC2)c(O)n1 | > 100 µM (inactive) | > 100 µM (inactive) | > 100 µM (inactive) | > 100 µM (inactive) | > 100 µM (inactive) | > 100 µM (inactive) | > 100 µM (inactive) | > 100 µM (inactive) | > 100 µM (inactive) | > 100 µM (inactive) | > 100 µM (inactive) | > 100 µM (inactive) | > 100 µM (inactive) | > 100 µM (inactive) | > 100 µM (inactive) | > 100 µM (inactive) | > 100 µM (inactive) | > 100 µM (inactive) | > 100 µM (inactive) | > 100 µM (inactive) |
| O=C(c1cc(Cl)cc(Cl)c1)N(Cc1cccnc1)C(=S)N(Cc1cccnc1)C(=O)c1cc(Cl)cc(Cl)c1 | 27.4 µM (inactive) | 22.5 µM (inactive) | 17.1 µM (inactive) | 15.3 µM (inactive) | 41.8 µM (inactive) | 25.3 µM (inactive) | 29.9 µM (inactive) | 34.1 µM (inactive) | 26.5 µM (inactive) | 85.9 µM (inactive) | 63.1 µM (inactive) | 23.8 µM (inactive) | 37.4 µM (inactive) | 18.4 µM (inactive) | 34.2 µM (inactive) | 41.3 µM (inactive) | 23.4 µM (inactive) | 92.7 µM (inactive) | 16.1 µM (inactive) | 22.2 µM (inactive) |
| CC1OC(OC2C(CO)OC(O[C@H]3CC[C@@]4(C)C(=CC[C@H]5[C@@H]6C[C@@H]7O[C@](O)(CC[C@@H](C)COC8OC(CO)C(O)C(O)C8O)[C@@H](C)[C@@H]7[C@@]6(C)CC[C@@H]54)C3)C(OC3OC(C)C(O)C(O)C3O)C2O)C(O)C(O)C1O (stereo partly drawn) | > 100 µM (inactive) | 5.28 µM (inactive) | 2.3 µM (inactive) | 2.56 µM (inactive) | 2.3 µM (inactive) | 2.13 µM (inactive) | 2.16 µM (inactive) | 1.56 µM (inactive) | 6.11 µM (inactive) | 3.06 µM (inactive) | 3.55 µM (inactive) | 2.07 µM (inactive) | 2.06 µM (inactive) | 2.41 µM (inactive) | 2.4 µM (inactive) | 3.23 µM (inactive) | 1.95 µM (inactive) | 1.48 µM (inactive) | 3.23 µM (inactive) | 1.87 µM (inactive) |
| COc1cc(C(=O)O)ccc1OS(=O)(=O)O | > 10 µM (inactive) | > 100 µM (inactive) | > 100 µM (inactive) | > 100 µM (inactive) | > 100 µM (inactive) | > 100 µM (inactive) | > 100 µM (inactive) | > 100 µM (inactive) | > 100 µM (inactive) | > 100 µM (inactive) | > 100 µM (inactive) | > 100 µM (inactive) | > 100 µM (inactive) | > 100 µM (inactive) | 30.3 µM (inactive) | > 100 µM (inactive) | > 100 µM (inactive) | > 100 µM (inactive) | > 100 µM (inactive) | > 100 µM (inactive) |
